The source of these data is US8933229B2, “8-azabicyclo[3.2.1]octane-8-carboxamide derivative” (Sumitomo Dainippon Pharma Co., Ltd., priority 2009, dated 2015).

What is called IC50 is the midpoint of a concentration-inhibition curve. A low value points to higher potency.

The target in one assay is T1, cortisone reductase of mouse adipose cell (11βHSD1) (Mus musculus, UniProt P50172).
T1 construct: The medium of adipocytes which were differentiated and induced as mentioned above were replaced; endogenous in cells; host or cells: primary cells from visceral fat tissue of ICR male mice (Japan SLC), differentiated into adipocytes in culture
T1 sequence (P50172 whole entry): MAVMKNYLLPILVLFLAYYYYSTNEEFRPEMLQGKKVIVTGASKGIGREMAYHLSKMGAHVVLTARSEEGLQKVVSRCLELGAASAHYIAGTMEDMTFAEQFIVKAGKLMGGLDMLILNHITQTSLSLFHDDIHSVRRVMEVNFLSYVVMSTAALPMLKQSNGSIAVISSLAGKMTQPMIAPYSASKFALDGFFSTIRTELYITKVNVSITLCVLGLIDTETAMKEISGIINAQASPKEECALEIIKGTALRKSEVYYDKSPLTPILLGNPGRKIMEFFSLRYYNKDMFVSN
As to the kind of experiment: Inhibitory activity assay against cortisone reductase of mouse primary adipocytes. Type of assay: cell-based. The settings on record: differentiated ICR mouse visceral fat primary adipocytes, 100 nM [1,2-3H] cortisone, 37° C. Here is the method: The adipose tissues adhered to the mesenterium and around the testicle of ten ICR male mice (9 to 11 weeks old, Japn SLC Inc.) (hereinafter, referred to as visceral fat tissue) were soaked in about 100 mL of a phospate buffer (0.20 g/L KCl, 0.20 g/L KH2PO4, 8.00 g/L NaCl, 2.16 g/L Na2HPO4.7H2O, 100 unit/ml penicillin (GIBCO), 100 μg/ml streptomycin (GIBCO), 250 ng/ml amphotericin (GIBCO)) and washed at room temperature.
The excised visceral fat tissues was cut finely in about 5×5 mm with scissors in Dulbecco's modified Eagle medium (about 50 ml, containing 4.5 g/L D-glucose and 584 mg/L L-glutamine, GIBCO) to which collagenase (Type II, Sigma), penicillin (GIBCO), streptomycin (GIBCO) and amphotericin (GIBCO) were added in an amount so that the final concentrations thereof are adjusted to 1 mg/ml, 100 unit/ml, 100 μg/ml and 250 ng/ml, respectively. Then, the mixture was shaken at 37° C. for 30 minutes (about 170 rpm), filtered through nylon mesh (80S [the pore size: 250 μm], SANSHIN INDUSTRIAL CO., LTD.), and the filtrate (cell suspension) was collected. This filtrate was centrifuged at 1800 rpm at room temperature for 5 minutes, and then, the liquid layer was removed stilly by decantation to give a precipate. This precipiate was suspended in Dulbecco's modified Eagle medium (30 ml, containing 4.5 g/L D-glucose and 584 mg/L L-glutamine, GIBCO; hereinafter, occasionally referred to as FBS-containing medium), to which fetal bovine serum (hereinafter referred to as FBS, GIBCO), ascorbic acid (Wako Pure Chemical Industries, Ltd.), penicillin (GIBCO), streptomycin (GIBCO) and amphotericin (GIBCO) are added thereto in an amount so that the final concentrations thereof were adjusted to 10%, 200 μM, 100 units/ml, 100 μg/ml and 250 ng/ml, respectively, and then the suspension was filtered through a nylon mesh (420S [pore size: 25 μm], SANSHIN INDUSTRIAL CO., LTD.). The filtrate was collected, and centrifuged at 1800 rpm at room temperature for 5 minutes. The liquid layer was removed stilly by decantation, and the precipitate was suspended again in the FBS-containing medium (30 ml). This suspension was treated by the same procedure (centrifugation, removal of liquid layer, suspension in FBS-containing medium) two times more, and the suspension (90 ml) was prepared. This suspension was put into cell culture flasks (T150, for adhered cell culture, Iwaki Glass) in a each volume of 30 ml, and incubated at 37° C. in the presence of 5% CO2. At 5 to 6 hours after starting incubation, the medium was removed, and the wall of the flask was washed with the above-mentioned phosphate buffer (15 ml). The washing liquid was removed, and the washing procedure was repeated again, and the phosphate buffer was removed. To the flask was added FBS-containing medium (30 ml), and the mixture was incubated at 37° C. under the presence of 5% CO2. On Day 1 or Day 2 after the culture started, the medium was removed, and the wall of the flask was washed with the phosphate buffer (15 ml) once. To the flask was added a trypsin-ethylenediamine tetraacetate (hereinafter, referred to as trypsin-EDTA) solution (0.05% trypsin, 0.53 mM EDTA 4Na, GIBCO) in such a volume that the cells are duly soaked, and the mixture was allowed to stand at 37° C. for 5 minutes. To this mixture was added the FBS-containing medium in about 10-times volume of that of the trypsin-EDTA solution, and then the cell suspension was obtained.
The cells in the cell suspension were counted with a counting chamber, and the cell suspension was diluted with the FBS-containing medium so that the concentration of the cell was adjusted to 1.4×10^5 cells/ml. Thus obtained cell dilution was put into a 48-well plate (for adherent cell culture, Iwaki Glass) in an amount of 300 μl per well, and the plate was incubated at 37° C. in the presence of 5% CO2 for 1 to 2 days. […]
On to `O=C(NC1C2CC3CC1CC(O)(C3)C2)N1C2CCC1CC(Oc1cc(C(F)(F)F)ccn1)C2` (centres unmarked) [Example 307], for which the IC50 is less than 1 nM.
As to `CC(C)c1ccnc(OC2CC3CCC(C2)N3C(=O)NC2C3CC4CC2CC(O)(C4)C3)c1` (centres unmarked) [Example 309], it took 4.1 nM to reach half-maximal inhibition (IC50).
Same read-out and setting: the value for `O=C(NC1C2CC3CC1CC(O)(C3)C2)N1C2CCC1CC(Oc1cccc(Cl)n1)C2` (centres unmarked) [Example 311] was 8.8 nM.
`CN(c1ccccc1)C1CC2CCC(C1)N2C(=O)NC1C2CC3CC1CC(O)(C3)C2` (stereo not drawn) [Example 316, (3-Endo)-N-[(E)-5-hydroxyadamantan-2-yl]-3-[methyl(phenyl)amino]-8-azabicyclo-[3.2.1]octane-8-carboxamide] gave a half-maximal inhibitory concentration (IC50) of 18 nM.
Still for that read-out and setting: the same measure for `CCc1cccnc1OC1CC2CCC(C1)N2C(=O)NC1C2CC3CC1CC(O)(C3)C2` (centres unmarked) [Example 324]: less than 3 nM; for `O=C(NC1C2CC3CC1CC(O)(C3)C2)N1C2CCC1CC(Oc1ncc(C(F)F)cc1Cl)C2` (centres unmarked) [Example 342]: less than 3 nM.
In the case of `CC(=O)c1cccnc1OC1CC2CCC(C1)N2C(=O)NC1C2CC3CC1CC(O)(C3)C2` (centres unmarked) [Example 353], it took 7.9 nM to reach half-maximal inhibition (IC50).
Still for that read-out and setting: the same measure for `COCc1cccc(OC2CC3CCC(C2)N3C(=O)NC2C3CC4CC2CC(O)(C4)C3)c1F` (centres unmarked) [Example 364]: 7.7 nM; for `O=C(NC1C2CC3CC1CC(O)(C3)C2)N1C2CCC1CC(Oc1cccc(COCC(F)(F)F)c1)C2` (centres unmarked) [Example 367]: less than 3 nM.
`O=C(NC1C2CC3CC1CC(O)(C3)C2)N1C2CCC1CC(Oc1ncccc1F)C2` (centres unmarked) [Example 400]: the IC50 was less than 3 nM.
Still for that read-out and setting: the value for `Cc1cccnc1OC1CC2CCC(C1)N2C(=O)NC1C2CC3CC1CC(O)(C3)C2` (centres unmarked) [Example 407] was 4.1 nM; that for `Cc1cccc(N2CCC(OC3CC4CCC(C3)N4C(=O)NC3C4CC5CC3CC(O)(C5)C4)CC2)c1` (centres unmarked) [Example 423] was less than 3 nM.
Still for that read-out and setting: the same measure for `O=C(NC1C2CC3CC1CC(O)(C3)C2)N1C2CCC1CC(N1Cc3ccccc3C1)C2` (centres unmarked) [Example 431]: 27 nM.

The target of a further assay is T2, cortisone reductase of human adipose cell (11βHSD1) (Homo sapiens, UniProt P28845).
T2 construct: host or cells: normal human visceral preadipocytes (HPrAD-vis) differentiated into adipocytes
T2 sequence (P28845 whole entry): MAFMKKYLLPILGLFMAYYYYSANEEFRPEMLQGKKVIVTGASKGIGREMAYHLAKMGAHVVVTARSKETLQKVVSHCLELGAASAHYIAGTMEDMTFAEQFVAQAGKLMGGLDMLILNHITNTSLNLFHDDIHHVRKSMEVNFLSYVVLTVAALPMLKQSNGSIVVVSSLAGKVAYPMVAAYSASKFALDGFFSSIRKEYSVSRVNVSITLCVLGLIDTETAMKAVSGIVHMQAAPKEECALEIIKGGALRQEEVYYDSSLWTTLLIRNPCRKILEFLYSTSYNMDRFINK
As to the kind of experiment: Inhibitory activity assay against cortisone reductase activity of cultured human adipocytes. Type of assay: cell-based. The conditions noted are these: differentiated normal human preadipocytes (HPrAD-vis), 100 nM [1,2-3H] cortisone, 37° C. The procedure: Normal human preadipocytes (HPrAD-vis, manufactured by Cambrex corporation) were inoculated onto a 48-well cell culture plate, and the differentiation induction was carried out according to Protocol attached to the kit. The medium for the cells on the 9-11 days of the differentiation was changed to D-MEM medium (0.2 ml; manufactured by GIBCO) containing 100 nM [1,2-^3H] cortisone (1 μCi/well, manufactured by Muromachi Yakuhin), 0.5% DMSO, a test compound (for test compound treated group, or DMSO only for the no-test compound treated group). The plate was incubated at 37° C. for 3 hours, and then the whole medium was collected. As a background group, the medium without cell was used. The medium was mixed with ethyl acetate (0.1 ml) in an Eppendorf tube. This mixture was voltexed, and then further centrifuged at 5,000 rpm for one minute at room temperature to separate the ethyl acetate layer (the upper layer). The ethyl acetate layer (10 μl) was spotted on an aluminium plate for thin layer chromatography (silica gel 60 angstrom, Merck & Co., Inc., hereinafter referred to as TLC plate). The developing solvent (chloroform/methanol (90:10, v/v)) was put into a sealed vessel, and the TLC plate was developed, and then dried at room temperature. An imaging plate (TR-2040, Fujifilm) was exposed onto the dried TLC plate for 16 hours or more. After the exposure was completed, the imaging plate was analyzed by Bioimage Analyzer (BAS2500, Fujifilm) and the [^3H] radioactivity on the part corresponding to the position of cortisol developed on the TLC plate. The inhibitory activity of a test compound against cortisone reductase was calculated according to the following equation. (inhibitory activity (%))=100×((group without test compound)−(group with test compound))/((group without test compound)−(background group))
The IC50 value was calculated by linear regression of logarithmic value of the concentration of test compound and the inhibitory activity value, using the data at 2 points showing around 50% of the inhibitory activity. […] The IC50 value of the following compounds of the present invention against cortisone reductase of human adipose cell was determined.
For the compound `Cc1cnc(C)c(OC2CC3CCC(C2)N3C(=O)NC2C3CC4CC2CC(O)(C4)C3)n1` (centres unmarked) [Example 306], the IC50 amounted to 6.3 nM.
Same read-out and setting: the value for `O=C(N[C@H]1C2CC3CC1C[C@](O)(C3)C2)N1[C@@H]2CC[C@H]1CC(COc1ccccc1)C2` (stereo partly drawn) [Example 314, (1R,5S)-N-[(E)-5-Hydroxyadamantan-2-yl]-3-(phenoxymethyl)-8-azabicyclo[3.2.1]octane-8-carboxyamide] was 19 nM; that for `O=C(NC1C2CC3CC1CC(O)(C3)C2)N1C2CCC1CC(Oc1ncccc1C1CC1)C2` (centres unmarked) [Example 326] was less than 3 nM.
The same measure, in the same setting: the same measure for `O=C(NC1C2CC3CC1CC(O)(C3)C2)N1C2CCC1CC(Oc1ncccc1C(F)F)C2` (centres unmarked) [Example 336]: 8.4 nM.
The compound `O=C(NC1C2CC3CC1CC(O)(C3)C2)N1C2CCC1CC(Oc1cc(OC(F)F)ccn1)C2` (centres unmarked) [Example 339] displayed an IC50 of less than 3 nM.
Still for that read-out and setting: the value for `O=C(NC1C2CC3CC1CC(O)(C3)C2)N1C2CCC1CC(Oc1cc(OCC(F)(F)F)ccn1)C2` (centres unmarked) [Example 373] was 17 nM; that for `O=C(NC1C2CC3CC1CC(O)(C3)C2)N1C2CCC1CC(Oc1ccc3c(c1)OC(F)(F)O3)C2` (centres unmarked) [Example 378] was 14 nM; that for `O=C(NC1C2CC3CC1CC(O)(C3)C2)N1C2CCC1CC(Oc1cc(F)c(F)c(F)c1)C2` (centres unmarked) [Example 383] was less than 3 nM.
The same measure, in the same setting: the value for `O=C1CCc2ccc(OC3CC4CCC(C3)N4C(=O)NC3C4CC5CC3CC(O)(C5)C4)cc21` (centres unmarked) [Example 390] was 11 nM; that for `Cc1cc(OC2CC3CCC(C2)N3C(=O)NC2C3CC4CC2CC(O)(C4)C3)ncc1F` (centres unmarked) [Example 404] was less than 3 nM; that for `O=C(NC1C2CC3CC1CC(O)(C3)C2)N1C2CCC1CC(Oc1ccc(F)cn1)C2` (centres unmarked) [Example 409] was less than 3 nM.
`O=C(NC1C2CC3CC1CC(O)(C3)C2)N1C2CCC1CC(Oc1ccc(F)cn1)C2` (centres unmarked) [Example 413] returned an IC50 of less than 3 nM.
The same measure, in the same setting: the same measure for `O=C(NC1C2CC3CC1CC(O)(C3)C2)N1C2CCC1CC(OC1CCN(c3ccc(F)cn3)CC1)C2` (centres unmarked) [Example 427]: 15 nM; for `O=C(N[C@H]1C2CC3CC1C[C@](O)(C3)C2)N1[C@@H]2CC[C@H]1C[C@H](Oc1ccccc1)C2` [compound 2]: less than 1 nM.
Consider `COc1cccc(OC2CC3CCC(C2)N3C(=O)NC2C3CC4CC2CC(O)(C4)C3)c1Cl` (centres unmarked) [compound 192], for which the IC50 is less than 3 nM.
On the same count and under the same terms, the same measure for `Cc1ccnc(C2CC3CCC(C2)N3C(=O)NC2C3CC4CC2CC(O)(C4)C3)c1` (centres unmarked) [compound 241]: less than 3 nM.
